Measurements from patent US11103684B2, “Systems, devices, and methods for treating a pulmonary disorder with an agent” (Holaira, Inc., priority 2013, dated 2021).
≈ marks a conversion by molar mass, not a printed value. Structures can show the parent of a compound that is named as a salt. Where two headings read alike, the source gives them in different places.

Columns and labels:
[1] = Solubility levels of various agents in water; settings: for Extent (of solubility): US Pharmacopea scale, part of solvent per part of solute; for Part H20/part solute / Solubility in Water: water; for Solubility in Water: from mg/L and MW
Source text: (§1) According to US Pharmacopea standards, the scale of solubility (part of solvent per part of solute) is as follows:

[2] = cited from earlier work
physchem = settings: water
Source text: as §1

Structure (SMILES) | Extent (of solubility) [1] | Part H20/part solute [1] | Solubility in Water [1] [mM] | solubility (physchem; Solubility in Water (mol/L)) [mM] | other results
CCCN1CCCC[C@H]1C(=O)Nc1c(C)cccc1C [Ropivacaine] | insoluble (>10000) | 266388.8889 | 0.2102 (≈ 57.7 µg/mL) | – | Solubility in Water [2]: 0.0576 mg/mL (≈ 210 µM)
CCCN1CCCC[C@H]1C(=O)Nc1c(C)cccc1C [Ropivacaine HCL] | – | – | – | – | Extent (of solubility) ([1]; HCL): slightly soluble (100 to 1000); Part H20/part solute ([1]; HCL): 342.5; Solubility in Water ([1]; HCL): 163.5 mM; Solubility in Water ([2]; HCL): 53.8 mg/mL
[N]=O [Nitric Oxide] | – | – | – | – | solubility (physchem): 2.85 mM (≈ 85.4 µg/mL)
CCCCN1CCCCC1C(=O)Nc1c(C)cccc1C (centres unmarked) [Bupivicaine] | very slightly soluble (1000 to 10000) | 6720 | 8.333 (≈ 2400 µg/mL) | – | –
CCN(CC)CCNC(=O)c1ccc(N)cc1 [Procainamide] | – | – | – | 18.6 (≈ 4390 µg/mL) | –
Cc1cccc(C)c1NC(=O)C(C)N (centres unmarked) [Tocainide] | – | – | – | 55.7 (≈ 10700 µg/mL) | –
